{"source": "patent US20050148495A1", "about": "“Methods and materials including for treating acne” (priority 2003, published 2005)", "key": {"Candida": {"system": "Candida", "type": "cell-based", "method": "Control tubes containing only water or formulation buffer were prepared for each isolate. Initial growth controls were determined by removing 10 μL from the water control tube and diluting it by 100 fold. From this dilution, 10 μL was used for inoculation and for spreading over the surface onto Laked Blood Agar (LBA) (Anaerobe Systems, Morgan Hill, Calif.) plates. The tubes and plates were incubated in an anaerobic atmosphere at 37° C. for 48 h. […] MBC50 and 90 values represent where 50 and 90%, respectively, of the tested strain's MBC values are equal to or less than the indicated concentration."}, "[1]": {"system": "polychromatic erythrocyte (PCE) cells in mouse bone marrow", "test": "Mouse bone marrow micronucleus assay", "type": "in vivo, Crl:CD-1(ICR) BR mouse", "procedure": "XMP.629 was next evaluated for in vivo clastogenic activity and/or disruption of mitotic apparatus by detecting micronuclei in polychromatic erythrocyte (PCE) cells in Crl:CD-1®(ICR) BR mouse bone marrow. The assay design was based on OECD Guideline 474, updated and adopted Jul. 21, 1997. In this micronucleus assay, XMP.629 was formulated in 10 mM sodium acetate buffer (pH 6.0) and dosed by intraperitoneal injection to six males per dose level at each scheduled harvest timepoint. The dose levels were 2, 4, or 8 mg/kg. Five animals dosed with XMP.629 at 2 or 4 mg/kg and five animals dosed with a positive control were euthanized approximately 24 hours after dosing for extraction of the bone marrow. Five animals per harvest timepoint dosed with XMP.629 at 8 mg/kg and five animals per harvest timepoint dosed with the vehicle control article were euthanized approximately 24 or 48 hours after dosing for extraction of the bone marrow. This micronucleus test can serve as a rapid screen for compounds which interfere with normal mitotic cell division (Schmid, 1975, Mutat. Res. 31: 9-15; Heddle et al., 1983, Mutat. Res. 123: 61-118; Heddle et al., 1991, Env. And Mol. Mutagen. 18: 277-291). At least 2000 PCEs per animal were analyzed for the frequency of micronuclei. Cytotoxicity was assessed by scoring the number of PCEs and normochromatic erythrocytes (NCEs) in at least the first 500 erythrocytes for each avenal. […] Therefore, XMP.629 was determined to be negative in the mouse bone marrow micronucleus assay."}}, "note": "Like-named read-outs stand apart in the source and are kept apart here. Non-standard residues stand in square brackets, D forms with d. Residues, ends and D or L forms follow the SMILES beside them. d1Nal = N[C@H](Cc1cccc2ccccc12)C(=O)O"}
{"smiles": "CC(C)C[C@@H](NC(=O)[C@H](N)CCCCN)C(=O)N[C@H](Cc1ccccc1)C(=O)N[C@H](CCCNC(=N)N)C(=O)N[C@H](Cc1cccc2ccccc12)C(=O)N[C@H](CCC(N)=O)C(=O)N[C@H](C)C(=O)N[C@H](CCCCN)C(=O)N[C@H](Cc1cccc2ccccc12)C(N)=O", "note": "[XMP.629, NH2-lys-leu-phe-arg-(3-(1-naphthyl)-ala)-gln-ala-lys-(3-(1-naphthyl)-ala)-CONH2] (H-[dK][dL][dF][dR][d1Nal][dQ][dA][dK][d1Nal]-NH2)", "values": [{"measurement": "MIC90, XMP.629 data reported as MBC values", "setting": "Candida", "value": 1, "unit": "µg/mL"}, {"measurement": "MIC90, XMP.629 data reported as MBC values", "setting": "Candida; in FB (formulation buffer)", "value": 0.5, "unit": "µg/mL"}, {"measurement": "mouse bone marrow micronucleus assay result", "setting": "[1]; 2, 4, or 8 mg/kg intraperitoneal", "value": "negative"}, {"measurement": "cytotoxicity to the bone marrow (PCE:NCE ratios)", "setting": "[1]; any dose level tested", "value": "not cytotoxic to the bone marrow"}, {"measurement": "signs of clinical toxicity", "setting": "[1]; up to 8 mg/kg", "value": "did not induce any signs of clinical toxicity"}]}
